Measured values published in patent publication US8952024B2, “Herbicidal pyrimidone derivatives” (E I du Pont de Nemours and Company, priority 2009, dated 2015).

Assays:
Assay type in all cases: in vivo
[1] = tested on: Italian ryegrass (Lolium multiflorum); assay: Test B pre-/postemergence plant response; details: for Ryegrass, Italian plant response rating (0 to 100 scale): 0 is no effect, 13 to 15 days
How it was run: (§1)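 Visual injury, 0–100 scale (100 = complete control), rated against controls after 13 to 15 days in greenhouse. Pre-emergence: seeds in loam/sand soil, treated at planting. Post-emergence: 1- to 4-leaf plants (2 to 18 cm) in peat/vermiculite medium. Compounds formulated in non-phytotoxic solvent with surfactant.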

[2] = tested on: bermudagrass (Cynodon dactylon); assay: Test B pre-/postemergence plant response; details: for Bermudagrass plant response rating (0 to 100 scale): 0 is no effect, 13 to 15 days
How it was run: as §1

[3] = tested on: galium (catchweed bedstraw, Galium aparine); assay: Test B pre-/postemergence plant response; details: Preemergence
How it was run: as §1

[4] = tested on: lambsquarters (Chenopodium album); assay: Test B pre-/postemergence plant response; details: for Lambsquarters plant response rating (0 to 100 scale): 0 is no effect, 13 to 15 days
How it was run: as §1

[5] = tested on: nightshade (eastern black nightshade, Solanum ptycanthum); assay: Test B pre-/postemergence plant response; details: Preemergence
How it was run: as §1

[6] = tested on: pigweed (Amaranthus retroflexus); assay: Test B pre-/postemergence plant response; details: for Pigweed plant response rating (0 to 100 scale): 0 is no effect, 13 to 15 days
How it was run: as §1

[7] = tested on: ragweed (common ragweed, Ambrosia elatior); assay: Test B pre-/postemergence plant response; details: for Ragweed plant response rating (0 to 100 scale): 0 is no effect, 13 to 15 days
How it was run: as §1

[8] = tested on: sunflower (common oilseed sunflower, Helianthus annuus); assay: Test B pre-/postemergence plant response; details: Preemergence
How it was run: as §1

[9] = tested on: wheat (Triticum aestivum); assay: Test B pre-/postemergence plant response; details: for Wheat plant response rating (0 to 100 scale): 0 is no effect, 13 to 15 days
How it was run: as §1

[10] = tested on: canarygrass (Phalaris minor); assay: Test B postemergence plant response; details: for Canarygrass plant response rating (0 to 100 scale): 62 g ai/ha, 0 is no effect, 13 to 15 days
How it was run: (§2)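 Visual ratings from 0 (no effect) to 100 (complete control), made against controls 13–15 days after treatment, kept in a greenhouse. Compounds were applied postemergence to potted plants at the 1- to 4-leaf stage (2–18 cm).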

[11] = tested on: chickweed (Stellaria media); assay: Test B postemergence plant response; details: for Chickweed plant response rating (0 to 100 scale): 62 g ai/ha, 0 is no effect, 13 to 15 days
How it was run: as §2

[12] = tested on: windgrass (Apera spica-venti); assay: Test B postemergence plant response; details: for Windgrass plant response rating (0 to 100 scale): 62 g ai/ha, 0 is no effect, 13 to 15 days
How it was run: as §2

[13] = tested on: winter barley (Hordeum vulgare); assay: Test B postemergence plant response; details: for Barley plant response rating (0 to 100 scale): 62 g ai/ha, 0 is no effect, 13 to 15 days
How it was run: as §2

[14] = 31 g ai/ha, postemergence, scale 0 to 100, 0 is no effect, 100 is complete control
[15] = 62 g ai/ha, postemergence, 100 is complete control
[16] = Postemergence, 125 g ai/ha, visual rating after 13 to 15 days, scale 0 (no effect) to 100 (complete control)
[17] = Postemergence, 250 g ai/ha, scale 0 to 100 (0 no effect, 100 complete control)
[18] = Preemergence, 31 g ai/ha, scale 0 to 100 (0 no effect, 100 complete control)
[19] = Preemergence, 62 g ai/ha, scale 0 to 100, 0 no effect, 100 complete control
[20] = Preemergence, 125 g ai/ha, scale 0 to 100, 0 no effect, 100 complete control
[21] = 250 g ai/ha, Preemergence, 0 to 100 scale
[22] = 31 g ai/ha, scale 0 to 100 (0 no effect, 100 complete control)
[23] = 62 g ai/ha, scale 0 to 100, 0 no effect, 100 complete control
[24] = 125 g ai/ha, scale 0 to 100, 0 no effect, 100 complete control
[25] = postemergence, 100 is complete control
[26] = Preemergence, 250 g ai/ha, 0 to 100 scale

Compound: CCCc1ncc(C(=O)C2=C(O)CCCC2=O)c(=O)n1CCC [Compound 72]
- Plant response rating, Ryegrass, Italian [1, 14]: 0
- Ryegrass, Italian plant response rating (0 to 100 scale) [1, 15]: 0
- Plant response rating, Ryegrass, Italian [1, 16]: 10
- Plant response rating, Ryegrass, Italian [1, 17]: 30
- Plant response rating, Ryegrass, Italian [1, 18]: 0
- Plant response rating, Ryegrass, Italian [1, 19]: 0
- Plant response rating, Ryegrass, Italian [1, 20]: 0
- Plant response rating, Bermudagrass [2, 14]: 75
- Bermudagrass plant response rating (0 to 100 scale) [2, 15]: 80
- Plant response rating, Bermudagrass [2, 21]: 100
- Plant response rating, Bermudagrass [2, 16]: 85
- Plant response rating, Bermudagrass [2, 17]: 85
- Plant response rating, Bermudagrass [2, 18]: 95
- Plant response rating, Bermudagrass [2, 19]: 98
- Plant response rating, Bermudagrass [2, 20]: 98
- Plant response rating, Galium ([3]; 250 g ai/ha, 0 to 100 scale): 85
- Plant response rating, Galium [3, 22]: 0
- Plant response rating, Galium [3, 23]: 85
- Plant response rating, Galium [3, 24]: 85
- Plant response rating, Lambsquarters [4, 14]: 90
- Lambsquarters plant response rating (0 to 100 scale) [4, 15]: 100
- Plant response rating, Lambsquarters [4, 21]: 100
- Plant response rating, Lambsquarters [4, 16]: 100
- Plant response rating, Lambsquarters [4, 17]: 100
- Plant response rating, Lambsquarters [4, 18]: 98
- Plant response rating, Lambsquarters [4, 19]: 98
- Plant response rating, Lambsquarters [4, 20]: 98
- Plant response rating, Nightshade [5, 22]: 95
- Plant response rating, Nightshade [5, 23]: 95
- Plant response rating, Nightshade [5, 24]: 98
- Plant response rating, Pigweed [6, 14]: 80
- Pigweed plant response rating (0 to 100 scale) [6, 15]: 100
- Plant response rating, Pigweed [6, 16]: 100
- Plant response rating, Pigweed [6, 17]: 100
- Plant response rating, Pigweed [6, 18]: 98
- Plant response rating, Pigweed [6, 19]: 98
- Plant response rating, Pigweed [6, 20]: 100
- Plant response rating, Ragweed [7, 14]: 75
- Ragweed plant response rating (0 to 100 scale) [7, 15]: 80
- Plant response rating, Ragweed [7, 16]: 90
- Plant response rating, Ragweed [7, 17]: 95
- Plant response rating, Ragweed [7, 18]: 55
- Plant response rating, Ragweed [7, 19]: 70
- Plant response rating, Ragweed [7, 20]: 80
- Plant response rating, Sunflower [8, 22]: 25
- Plant response rating, Sunflower [8, 23]: 25
- Plant response rating, Sunflower [8, 24]: 65
- Plant response rating, Wheat [9, 14]: 0
- Wheat plant response rating (0 to 100 scale) [9, 15]: 5
- Plant response rating, Wheat [9, 16]: 10
- Plant response rating, Wheat [9, 17]: 10
- Plant response rating, Wheat [9, 18]: 0
- Plant response rating, Wheat [9, 19]: 0
- Plant response rating, Wheat [9, 20]: 0
- Plant response rating, Canarygrass [10, 14]: 0
- Canarygrass plant response rating (0 to 100 scale) [10, 25]: 0
- Plant response rating, Canarygrass [10, 16]: 0
- Plant response rating, Canarygrass [10, 17]: 0
- Plant response rating, Chickweed [11, 14]: 70
- Chickweed plant response rating (0 to 100 scale) [11, 25]: 85
- Plant response rating, Chickweed [11, 16]: 90
- Plant response rating, Chickweed [11, 17]: 90
- Plant response rating, Windgrass [12, 14]: 5
- Windgrass plant response rating (0 to 100 scale) [12, 25]: 20
- Plant response rating, Windgrass [12, 16]: 60
- Plant response rating, Windgrass [12, 17]: 65
- Plant response rating, Barley [13, 14]: 0
- Barley plant response rating (0 to 100 scale) [13, 25]: 0
- Plant response rating, Barley [13, 16]: 0
- Plant response rating, Barley [13, 17]: 0

Compound: CCCCn1c(CCC)ncc(C(=O)C2=C(O)CCCC2=O)c1=O [Compound 75]
- Plant response rating, Ryegrass, Italian [1, 14]: 0
- Ryegrass, Italian plant response rating (0 to 100 scale) [1, 15]: 15
- Plant response rating, Ryegrass, Italian [1, 16]: 40
- Plant response rating, Ryegrass, Italian [1, 17]: 60
- Plant response rating, Ryegrass, Italian [1, 18]: 0
- Plant response rating, Ryegrass, Italian [1, 19]: 0
- Plant response rating, Ryegrass, Italian [1, 20]: 0
- Ryegrass, Italian plant response rating [1, 26]: 0
- Plant response rating, Bermudagrass [2, 14]: 90
- Bermudagrass plant response rating (0 to 100 scale) [2, 15]: 98
- Plant response rating, Bermudagrass [2, 16]: 98
- Plant response rating, Bermudagrass [2, 17]: 98
- Plant response rating, Bermudagrass [2, 18]: 98
- Plant response rating, Bermudagrass [2, 19]: 100
- Plant response rating, Bermudagrass [2, 20]: 100
- Bermudagrass plant response rating ([2]; Preemergence, 250 g ai/ha, 0 to 100 scale, 0 no effect, 100 complete control): 100
- Plant response rating, Galium [3, 22]: 60
- Plant response rating, Galium [3, 23]: 85
- Plant response rating, Galium [3, 24]: 95
- Galium plant response rating ([3]; 250 g ai/ha, 0 to 100 scale): 98
- Plant response rating, Lambsquarters [4, 14]: 98
- Lambsquarters plant response rating (0 to 100 scale) [4, 15]: 100
- Plant response rating, Lambsquarters [4, 16]: 100
- Plant response rating, Lambsquarters [4, 17]: 100
- Plant response rating, Lambsquarters [4, 18]: 98
- Plant response rating, Lambsquarters [4, 19]: 100
- Plant response rating, Lambsquarters [4, 20]: 100
- Lambsquarters plant response rating [4, 26]: 100
- Plant response rating, Nightshade [5, 22]: 95
- Plant response rating, Nightshade [5, 23]: 98
- Plant response rating, Nightshade [5, 24]: 98
- Nightshade plant response rating ([5]; 250 g ai/ha, 0 to 100 scale): 100
- Plant response rating, Pigweed [6, 14]: 100
- Pigweed plant response rating (0 to 100 scale) [6, 15]: 100
- Plant response rating, Pigweed [6, 16]: 100
- Plant response rating, Pigweed [6, 17]: 100
- Plant response rating, Pigweed [6, 18]: 98
- Plant response rating, Pigweed [6, 19]: 100
- Plant response rating, Pigweed [6, 20]: 100
- Pigweed plant response rating [6, 26]: 100
- Plant response rating, Ragweed [7, 14]: 80
- Ragweed plant response rating (0 to 100 scale) [7, 15]: 85
- Plant response rating, Ragweed [7, 16]: 90
- Plant response rating, Ragweed [7, 17]: 95
- Plant response rating, Ragweed [7, 18]: 75
- Plant response rating, Ragweed [7, 19]: 75
- Plant response rating, Ragweed [7, 20]: 95
- Ragweed plant response rating [7, 26]: 95
- Plant response rating, Sunflower [8, 22]: 30
- Plant response rating, Sunflower [8, 23]: 55
- Plant response rating, Sunflower [8, 24]: 75
- Sunflower plant response rating ([8]; 250 g ai/ha, 0 to 100 scale): 85
- Plant response rating, Wheat [9, 14]: 0
- Wheat plant response rating (0 to 100 scale) [9, 15]: 0
- Plant response rating, Wheat [9, 16]: 10
- Plant response rating, Wheat [9, 17]: 25
- Plant response rating, Wheat [9, 18]: 0
- Plant response rating, Wheat [9, 19]: 0
- Plant response rating, Wheat [9, 20]: 0
- Wheat plant response rating [9, 26]: 0
- Plant response rating, Canarygrass [10, 14]: 0
- Canarygrass plant response rating (0 to 100 scale) [10, 25]: 0
- Plant response rating, Canarygrass [10, 16]: 0
- Plant response rating, Canarygrass [10, 17]: 0
- Plant response rating, Chickweed [11, 14]: 85
- Chickweed plant response rating (0 to 100 scale) [11, 25]: 90
- Plant response rating, Chickweed [11, 16]: 98
- Plant response rating, Chickweed [11, 17]: 100
- Plant response rating, Windgrass [12, 14]: 30
- Windgrass plant response rating (0 to 100 scale) [12, 25]: 50
- Plant response rating, Windgrass [12, 16]: 70
- Plant response rating, Windgrass [12, 17]: 90
- Plant response rating, Barley [13, 14]: 0
- Barley plant response rating (0 to 100 scale) [13, 25]: 0
- Plant response rating, Barley [13, 16]: 0
- Plant response rating, Barley [13, 17]: 0
